In brackets after ≈: the same amount, converted by molar mass.
What was measured:
[1] = system: HCT-116; assay: Cytotoxicity against human HCT116 cells assessed as growth inhibition after 72 hrs by MTT assay; assay type: functional; settings: HCT-116, 72 h
[2] = system: PC-12; assay: Cytotoxicity against rat PC12 cells assessed as growth inhibition after 72 hrs by MTT assay; assay type: functional; settings: PC-12, 72 h

Row | Compound | GI50 [1] [µg/mL] | GI50 [2] [µg/mL]
1 | CC(=O)O[C@@H]1C[C@@H](C)[C@]2(CCC(=O)O2)[C@@]2(C)CCCC(C)(C)[C@H]12 | > 5 | > 5
2 | COc1ccc([C@@H]2CC(=O)c3c(cc(OC)c(OC)c3O)O2)cc1O | 2.87 (≈ 8.29 µM) | 2.27 (≈ 6.55 µM)
3 | CO[C@H]1C[C@@]2(CC[C@@]3(O2)[C@H](C)C[C@@H](OC(C)=O)[C@H]2C(C)(C)CCC[C@@]23C)[C@H](OC)O1 (relative stereo) | > 5 | > 5
4 | COc1ccc(-c2oc3cc(OC)c(OC)c(O)c3c(=O)c2OC)cc1OC [ARTEMETIN] | 2.2 (≈ 5.66 µM) | 2.27 (≈ 5.84 µM)
5 | COc1ccc(-c2oc3cc(OC)c(OC)c(O)c3c(=O)c2OC)cc1O [CASTICIN] | 0.119 (≈ 0.318 µM) | 0.114 (≈ 0.305 µM)
6 | CC(=O)O[C@@H]1C[C@@H](C)[C@](O)(CCC2=CC(=O)OC2)[C@@]2(C)CCCC(C)(C)[C@H]12 [VITEXILACTONE] | > 5 | > 5
